Series [1] concerns Rattus norvegicus. The series can be described thus: Antihypertensive activity in conscious normotensive rat assessed as inhibition of angiotensin 2-induced pressor response at 1 mg/kg, iv after 6 hrs. It counts as functional.
The nature of series [2]: Oral bioavailability in cynomolgus monkey. It counts as ADME, organism-based, Macaca fascicularis. The note with it: in vivo.
Series [3] can be described thus: Binding affinity to angiotensin AT1 receptor in rat liver membranes. The format is cell membranes, Membrane.
Series [4] in a line: Oral bioavailability in dog. The note with it: in vivo. The format is ADME, organism-based, Canis lupus familiaris.
A short description of series [5]: Oral bioavailability in rat. The format is ADME, organism-based. The note with it: in vivo.
The test system of series [6] is Rattus norvegicus. In words: Antihypertensive activity in po dosed renal hypertensive rat model assessed as reduction of blood pressure. It counts as functional.
The test system of series [7] is Rattus norvegicus. The series can be described thus: Antihypertensive activity in iv dosed renal hypertensive rat model assessed as reduction of blood pressure. The format is functional.
In series [8] the test system is Rattus norvegicus. In words: Antihypertensive activity in conscious normotensive rat at 0.1 mg/kg after 6 hrs. It counts as functional.
The species named for series [9] is Rattus norvegicus. In words: (§1) Displacement of radiolabeled angiotensin2 from angiotensin AT1 receptor in rat adrenal cortex membranes. The note with it: Membrane, concentration not given here. It counts as cell membranes.
Series [10] deals with T1, Type-1 angiotensin II receptor (Homo sapiens, UniProt P30556).
T1 sequence (P30556 whole entry): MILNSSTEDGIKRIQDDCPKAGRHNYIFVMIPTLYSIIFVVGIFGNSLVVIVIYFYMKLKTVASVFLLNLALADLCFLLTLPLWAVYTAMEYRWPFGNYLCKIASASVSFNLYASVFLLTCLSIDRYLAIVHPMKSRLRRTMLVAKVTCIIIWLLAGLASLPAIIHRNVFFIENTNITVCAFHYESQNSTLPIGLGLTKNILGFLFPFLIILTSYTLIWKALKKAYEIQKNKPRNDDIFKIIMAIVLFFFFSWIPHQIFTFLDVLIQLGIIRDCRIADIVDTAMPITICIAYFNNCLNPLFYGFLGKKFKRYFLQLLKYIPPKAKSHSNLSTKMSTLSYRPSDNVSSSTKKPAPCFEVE
The series can be described thus: Antagonist activity at angiotensin AT1 receptor in human PLC-PRF5 cells. The format is functional, cell-based.

Series [11] addresses T1, Type-1 angiotensin II receptor. The series can be described thus: Displacement of [3H]-angiotensin 2 from angiotensin AT1 receptor in human PLC-PRF5 cells. The format is cell-based. (In general: In a radioligand displacement assay an active substance lowers the binding of a labelled ligand.)
Series [12] has as its system Homo sapiens. In words: Metabolic stability in iv and po dosed human assessed as conversion of EXP3174. It counts as ADME, organism-based. The note with it: in vivo.
For series [13], the system named is Rattus norvegicus. In words: Inhibition of angiotensin 2-induced response in iv dosed conscious Sprague-Dawley rat. It counts as functional.
In series [14] the test system is Rattus norvegicus. The series can be described thus: Antihypertensive activity in iv dosed salt depleted SHR rat model assessed as reduction of angiotensin 2-induced response. It counts as functional.
Series [15] deals with Rattus norvegicus. The series can be described thus: Antihypertensive activity in iv dosed salt depleted SHR rat model assessed as reduction of angiotensin 2-induced mean arterial pressure at […]. Further details: scale not given: the % may be the effect or the level left. The format is functional, Artery.
Series [16] can be described thus: Displacement of [125I]-Sar1Ile8-angiotensin 2 from angiotensin AT1 receptor in rat aortic smooth muscle cells.
Series [17] in a line: Displacement of [125I]-Sar1Ile8-angiotensin 2 from angiotensin AT1 receptor in rat adrenal cortical membranes. The format is cell membranes, Membrane.
The subject of series [18] is Rattus norvegicus. In words: Antihypertensive activity in iv dosed renal artery ligated rat model assessed as reduction of means arterial blood pressure by 30 mm Hg. The format is functional.
Series [19] can be described thus: as §1. The format is cell membranes, Membrane.
In series [20] the target is T2, Type-1 angiotensin II receptor (Homo sapiens) (UniProt P30556).
T2 sequence (whole entry): T1 sequence (P30556 whole entry)
In words: Ratio of compound IC50 to losartan IC50 for angiotensin AT1 receptor.

Series [21] has as its system Rattus norvegicus. In words: Inhibition of angiotensin 2-induced response in iv dosed normotensive rat. It counts as functional.
The target in series [22] is T3, Type-1 angiotensin II receptor (Oryctolagus cuniculus, UniProt P34976).
T3 sequence (P34976 whole entry): T1 sequence (P30556 whole entry) with I2M, V49A, I254V, I270V, R272H, R311K, T349S, A353V
The series can be described thus: Antagonist activity at angiotensin AT1 receptor in rabbit adrenal cortex assessed as inhibition of angiotensin 2-induced […] response. The format is functional, tissue-based.

Series [23] addresses T3, Type-1 angiotensin II receptor. In words: Antagonist activity at angiotensin AT1 receptor in rabbit aortic strip assessed as inhibition of angiotensin 2-induced contractile response. The note with it: read-out: pA2 (converted). The format is functional.
For series [24], the target named is T4, Type-1 angiotensin II receptor (Cavia porcellus, UniProt Q9WV26).
T4 sequence (Q9WV26 whole entry): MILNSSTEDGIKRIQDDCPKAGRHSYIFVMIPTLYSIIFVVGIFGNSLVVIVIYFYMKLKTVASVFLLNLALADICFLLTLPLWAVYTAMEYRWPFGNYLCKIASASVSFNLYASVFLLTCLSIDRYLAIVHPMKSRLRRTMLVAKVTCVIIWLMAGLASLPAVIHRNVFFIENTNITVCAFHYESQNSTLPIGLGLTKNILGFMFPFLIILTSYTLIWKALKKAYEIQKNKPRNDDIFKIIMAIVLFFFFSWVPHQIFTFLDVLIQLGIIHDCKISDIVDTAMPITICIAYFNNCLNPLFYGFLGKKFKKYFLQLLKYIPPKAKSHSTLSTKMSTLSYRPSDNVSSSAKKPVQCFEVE
In words: Binding affinity to angiotensin AT1 receptor in guinea pig adrenal cortex membranes. It counts as cell membranes, Membrane.

Series [25] has as its target T3, Type-1 angiotensin II receptor. In words: Binding affinity to angiotensin AT1 receptor in rabbit aortic rings.
Series [26] relates to Rattus norvegicus. In words: Antihypertensive activity in iv dosed anesthetized ganglionic blocked rat model assessed as reduction of angiotensin 2-induced response. The format is functional, organism-based.
Series [27] in a line: Displacement of [125I]-angiotensin 2 from angiotensin AT1 receptor in rat liver membranes. It counts as cell membranes, Membrane.

Each structure is given as a SMILES string. Substitutions are numbered along the chain they refer to.

A word on the inhibition in vivo: it is the change of the read-out against control, counted positive when it falls. For orientation: bioavailability means dose-corrected exposure relative to a reference, in per cent. The Ki is the equilibrium dissociation constant of an inhibitor or competing ligand from its target. Usually ED50 stands for the midpoint of the dose-response relation. By inhibition is commonly meant the drop in the measured response relative to a control, in per cent.

Take `CCc1nc2c(C)cc(C)nn2c1Cc1ccc(-c2ccccc2-c2nn[nH]n2)cc1`: the inhibition in vivo at 1 mg/kg in series [1] was 90%.
Consider `CCCN(Cc1ccc(-c2ccccc2-c2nn[nH]n2)cc1)c1ncccc1C(=O)O`, for which the bioavailability in series [2], in series [4] and in [5] was more than 50% in each case. This compound registered a Ki in [3] of 0.76 nM.
`CCCc1nc(CN2CCN(c3ccccn3)CC2)c(C(=O)O)n1Cc1ccc(-c2ccccc2-c2nn[nH]n2)cc1`: the ED50 in series [6] came out at 1.65 mg/kg; in series [7] it was 0.18 mg/kg.
In series [8], `CCCCc1nc(-c2ccccc2Cl)c(C(=O)O)n1Cc1ccc(-c2ccccc2-c2nn[nH]n2)cc1` gave an Activity of 88%.
In [9], `CCCc1nc(C)n(CCO)c(=O)c1Cc1ccc(-c2ccccc2-c2nnn[nH]2)cc1` gave an inhibition of 60%.
Consider `CCCCN1CC2(CN1Cc1ccc(-c3ccccc3-c3nnn[nH]3)cc1)C(=O)CCC2=O`, for which the IC50 in series [10] is 22 nM. Moreover, in [11], the affinity corresponds to a Ki of 25 nM.
Turning to `CCCCc1nc(Cl)c(CO)n1Cc1ccc(-c2ccccc2-c2nn[nH]n2)cc1` [LOSARTAN], the Stability in series [12] is listed as 14%.
`CCCCc1nc(Cl)c(C(=O)[O-])n1Cc1cccc2c1ccn2-c1ccccc1-c1nn[n-]n1.[Li+].[Li+]`: the results for the ED50 in [13] and in [14] were 0.22 µmol/kg and 0.03 µmol/kg, respectively. Also, the Activity in series [15] is given as 39%. Besides, the Ki was determined as 7.6 nM in series [16] and 18.4 nM in series [17].
As for `CCCCc1nc(Cl)c(C(=O)O)n1Cc1ccc(-c2ccccc2-c2nn[nH]n2)cc1` [CARBOXYLIC ACID METABOLITE], the ED30 in series [18] came to 0.038 mg/kg. The same compound came in with an IC50 in [19] of 0.37 nM.
Regarding `CCCCC1=NC2(CCCC2)C(=O)N1Cc1ccc(-c2ccccc2-c2nnn[nH]2)cc1` [IRBESARTAN], the Ratio IC50 in series [20] is 10. This compound came in with an IC50 in series [3] of 1.3 nM.
In series [21], `CCCCc1ncc(/C=C(\Cc2cccs2)C(=O)O)n1Cc1ccc(C(=O)O)cc1` [EPROSARTAN] had an ID60 of 0.08 mg/kg.
Turning to `CCOC(=O)/C=C1\N(Cc2ccc(-c3ccccc3-c3nn[nH]n3)cc2)C(=O)CC1(CC)CC`, the IC50 in series [22] stood at 100 nM. Also, the Kb in series [23] is 12.6 nM.
`Cc1cc(Sc2ccc(-c3ccccc3-c3nn[nH]n3)cc2)c2ccccc2n1` had an IC50 in series [24] of 370 nM.
Turning to `CCc1nc2c(C)cc(C)nc2n1Cc1ccc2c(c1)CCN2C(c1ccccc1)c1nnn[nH]1` (stereo not drawn), in series [25], the IC50 is 1 nM.
With `CCCc1nc(-n2cccc2C(=O)C(F)(F)F)c(C(=O)O)n1Cc1ccc(-c2ccccc2-c2nn[nH]n2)cc1`, the IC50 in series [26] is 6.2 mg/kg; in series [27], 0.8 nM.

For the origin of these results see ChEMBL document CHEMBL1667742, “Angiotensin II receptor type 1 (AT1) selective nonpeptidic antagonists--a perspective” (Bioorg Med Chem, 2010).
